US6699477B2, “EBV CTL epitopes” (The Council of the Queensland Institute of Medical Research, priority 1996, dated 2004)
Where two headings read alike, the source gives them in different places.

Key:
[1] = tested on: EBV; conditions: Table 4; cited from earlier work
[2] = tested on: HLA; conditions: Table 4; cited from earlier work
[3] = tested on: CTL culture B5; assay: Identification of specific peptide target, overlapping peptides on autologous PHA blasts; assay type: cell-based, human; conditions: peptides preincubated with autologous PHA blasts
Method: (§1) Limiting dilution cultures were established by distributing PBL from the fourth bleed in 24 replicates at 2×10^4 cells per well in 96-well round-bottomed microtitre plates. Doubling dilutions were made to a final concentration of 1.6×10^2 per well. Approximately 1×10^4 γ-irradiated (8000 rads) autologous type B (EW-Ag-876) LCLs were added to each well as both feeder and stimulator cells to a total volume of 100 μl. Cultures were fed on days 4 and 7 with 50 μl of T cell growth medium and assayed on day 10 or later. The plates were subcultured and maintained in T cell growth medium and stimulated with γ-irradiated EW-Ag-876 LCLs. Initial assays were against type A and type B LCLs and subsequently against peptide-coated PHA-blasts or LCLs. Precursor frequencies were determined by a modification of the method of maximum likelihood estimation (11). Assessment of peptide specific activity. For determination of the antigenic specificity at the peptide level, a set of 20-mer overlapping peptides of EBNA-6B (residues 100-1069 (46)) was prepared using a kit and software distributed by Chiron Mimotopes (Chiron Corporation, Sydney, Australia). Nine-mer and 10-mer overlapping peptides with unblocked C and N termini were manufactured by Chiron Mimotopes. Labelled target cells were preincubated with overlapping peptides in the 96-well trays for 30-60 minutes before adding effectors. […]

[4] = tested on: B-type epitope CTL; assay: HLA-restriction CTL assay of type B-specific epitope, cell lines with or without specific peptide; assay type: cell-based, human; conditions: QNGALAINTF specific CTLs, peptide-incubated targets of known HLA specificity
Method: as §1

[5] = tested on: EBV; assay: EBV type of CTL epitopes of the invention (Table 3); assay type: cell-based, Epstein-Barr virus
[6] = tested on: T cell precursors; assay: Limiting dilution cultures, epitope specific precursor frequency; conditions: PBL of donor stimulated by autologous type B cells; assayed 12 weeks later
[7] = tested on: HLA; conditions: Table 3

Row | Sequence | EBV Type [1] | EBV Type [5] | other results
1 | AVLLHEESM | Type 1 | – | –
2 | CLGGLLTMV | Type 1 & 2 | – | HLA Rest. [2]: HLA A2
3 | DEPASTEPVHDQLL | Type 1 | – | –
4 | DTPLIPLTIF | Type 1 | – | –
5 | EENLLDFVRF | Type 1 & 2 | – | –
6 | FLRGRAYGL | Type 1 | – | HLA Rest. [2]: HLA B8
7 | HLAAQGMAY | Type 1 | – | –
8 | KEHVIQNAF | Type 1 | – | –
9 | LPGPQVTAVLLHEES | Type 1 | – | –
10 | NPTQAPVIQLVHAVY | Type 1 | – | –
11 | QNAARTLNTF [reference compound] | – | – | Recognition by type B specific culture B5 [3]: nonreactive
12 | QNGALAINTF | – | Type 2 | HLA restriction [4]: B62 (B15)-restricted; Recognition by type B specific culture B5 [3]: minimal epitope; Frequency (epitope specific T cell precursors) [6]: 1/16395
13 | QPRAPIRPI | Type 1 & 2 | – | HLA Rest. [2]: HLA B7
14 | QVKWRMTTL | – | Type 2 | –
15 | RLRAEAGVK | Type 1 | – | HLA Rest. [2]: HLA A3
16 | RPPIFIRRL | Type 1 | – | HLA Rest. [2]: HLA B7
17 | RRIYDLIKL | – | Type 1 | –
18 | RRRWRRLTV | Type 1 | – | –
19 | RYSIFFDY | Type 1 | – | –

Row | Sequence | EBV Type [1] | EBV Type [5] | other results
20 | SVRDRLARL | Type 1 & 2 | – | HLA Rest. [2]: HLA A2
21 | TSLYNLRRGTALA | Type 1 & 2 | – | HLA Rest. [2]: HLA DR1
22 | TVFYNIPPMPL | Type 1 | – | HLA Rest. [2]: HLA DQ2
23 | TYSAGIVQI | – | Type 1 | –
24 | VEITPYEPTG | – | Type 1 | –
25 | VEITPYEPTW | – | Type 1 | –
26 | VEITPYKPTW | Type 1 | – | –
27 | VELTPYKPTW | – | Type 1 | –
28 | VFSDGRVAC | – | Type 1 | –
29 | VPAPAGPIV | – | Type 1 | –
30 | VPAPPVGPIV | – | Type 1 | –
31 | VSFIEFVGW | Type 1 | – | –
32 | VSSDGLVAC | – | Type 1 | –
33 | VSSDGQVAC | – | Type 1 | –
34 | VSSDGRVAC | – | Type 1 | –
35 | VSSDGRVPC | – | Type 1 | –
36 | VSSDGRVVC | – | Type 1 | HLA restriction [7]: HLA A29
37 | VSSEGRVAC | – | Type 1 | –
